Measurements published in patent US7105730B1, “Nucleic acid molecules and other molecules associated with sterol synthesis and metabolism” (Monsanto Technology L.L.C., priority 1999, dated 2006).

Test system: HES1 (YOR237W) transcript in wild type yeast LPY9
Assay: Yeast transcript profiling by array hybridization after ketoconazole treatment
Format: cell-based, Saccharomyces cerevisiae
Details: yeast LPY9, array of yeast ORF sequences; SEQ ID NO: 5
Protocol: The yeast strain LPY9 (MATa, leu2, Ura3, his3) is grown overnight and inoculated into SD+ hul (histidine, uracil, leucine) media. Aliquots of the culture are treated with ketoconazole (an inhibitor of C-14α demethylase (P45014DM) enzyme) at 10 ug/ml, 50 ug/ml, and […], respectively. A sample of each is collected at 2, 4, and 6 hours after treatment. Control samples treated with DMSO (dimethyl sulfoxide-solvent for ketoconazole) but not with ketoconazole are also collected. Total RNA from each sample is collected by conventional methods, such as a Zirconium/Silica bead binding and extraction method. The sequence content of each sample is analyzed and compared by hybridizing each of them to a number of yeast ORF sequences immobilized on a Nylon membrane in an array format.
Using this method, over 600 RNA transcripts levels are shown to be altered.

## CC(=O)N1CCN(c2ccc(OCC3COC(Cn4ccnc4)(c4ccc(Cl)cc4Cl)O3)cc2)CC1 (stereo not shown) [ketoconazole]
  Effect of ketoconazole addition on yeast HES1 transcript level: particularly effected
